Experimental data from patent publication US4241064A, “9H-Pyrido[3,4-b]indole derivatives” (Nippon Shinyaku Co. Ltd., priority 1978, dated 1980).
Where two headings read alike, the source gives them in different places.

Experiments:
[1] = target: xanthine-oxidase (Bos taurus, UniProt P80457); experiment: xanthine-oxidase inhibitory activity (pre-incubation 5 min, then 10 μM xanthine; Kalker); type: biochemical; settings: Table I; phosphate buffer pH 7.5, 10 μM xanthine; read-out: IC50 (xanthine-oxidase inhibition) (converted)
Chain of xanthine-oxidase (P80457 whole entry): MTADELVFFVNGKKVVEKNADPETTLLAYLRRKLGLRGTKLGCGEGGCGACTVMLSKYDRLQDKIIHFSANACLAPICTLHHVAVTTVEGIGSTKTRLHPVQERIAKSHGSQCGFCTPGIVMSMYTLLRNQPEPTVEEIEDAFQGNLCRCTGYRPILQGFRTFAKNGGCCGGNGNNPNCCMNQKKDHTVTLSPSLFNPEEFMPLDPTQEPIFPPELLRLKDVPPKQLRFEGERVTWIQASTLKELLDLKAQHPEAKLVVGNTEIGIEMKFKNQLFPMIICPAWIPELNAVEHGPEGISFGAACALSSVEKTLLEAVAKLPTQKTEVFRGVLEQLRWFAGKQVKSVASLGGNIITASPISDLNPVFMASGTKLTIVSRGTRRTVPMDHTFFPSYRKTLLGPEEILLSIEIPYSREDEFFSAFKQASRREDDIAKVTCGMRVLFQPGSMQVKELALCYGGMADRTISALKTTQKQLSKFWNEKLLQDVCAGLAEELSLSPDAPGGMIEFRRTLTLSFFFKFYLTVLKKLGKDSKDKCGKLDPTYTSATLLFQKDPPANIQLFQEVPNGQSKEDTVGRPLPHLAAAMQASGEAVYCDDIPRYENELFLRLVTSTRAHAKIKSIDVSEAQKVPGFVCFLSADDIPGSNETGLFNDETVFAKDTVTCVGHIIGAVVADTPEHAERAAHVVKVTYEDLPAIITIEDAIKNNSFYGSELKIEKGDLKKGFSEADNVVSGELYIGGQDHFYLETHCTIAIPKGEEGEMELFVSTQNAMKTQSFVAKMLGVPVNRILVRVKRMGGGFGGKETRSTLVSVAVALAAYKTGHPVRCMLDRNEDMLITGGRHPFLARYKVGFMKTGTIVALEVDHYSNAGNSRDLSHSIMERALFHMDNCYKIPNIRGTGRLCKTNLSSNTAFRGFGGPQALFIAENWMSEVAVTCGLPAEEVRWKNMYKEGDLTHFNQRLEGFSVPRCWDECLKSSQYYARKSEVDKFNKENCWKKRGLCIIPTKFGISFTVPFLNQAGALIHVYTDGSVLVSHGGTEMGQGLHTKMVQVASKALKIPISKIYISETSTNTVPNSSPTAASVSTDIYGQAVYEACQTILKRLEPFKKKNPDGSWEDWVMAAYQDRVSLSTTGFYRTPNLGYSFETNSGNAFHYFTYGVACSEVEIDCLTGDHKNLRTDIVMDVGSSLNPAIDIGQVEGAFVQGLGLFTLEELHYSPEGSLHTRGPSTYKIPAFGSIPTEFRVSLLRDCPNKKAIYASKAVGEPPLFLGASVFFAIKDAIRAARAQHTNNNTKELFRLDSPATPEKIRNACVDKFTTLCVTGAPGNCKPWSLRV
From the text: The foregoing compounds have the property of inhibiting the enzyme xanthine-oxidase. As is known, xanthine-oxidase inhibitors improve hyperuricacidemia by suppressing the formation of uric acid and, as such, find use as therapeutic and prophylactic agents in the treatment of gout, calculus in the urinary organ, tissue degeneration of the circulatory system, and the like. The xanthine-oxidase inhibitory activity is expressed in terms of the concentration of the agent at which a 50% inhibition of xanthine-oxidase activity is observed (IC50). This can be readily measured pre-incubation of test specimens at varying concentrations in phosphate buffer (pH 7.5) for 5 minutes, then adding 10 μM of xanthine, measuring the enzyme activity (Kalker), and comparing the assay result with the activity of a control to determine the percent inhibition. (The IC50 value being derived from a plot of concentration versus percent inhibition).
According to the present invention, commercial picrasma wood, dry pulverized picrasma wood or, preferably, the dry pulverized powder of its heart wood, is extracted with a polar organic solvent such as water or methanol and the extract is then concentrated to yield a whole picrasma extract. This extract is then fractionated as for example by Sephadex LH or silica gel chromatography. The fractions are assayed for xanthine-oxidase inhibitory activity and the active fraction this then purified as by recrystallization.

[2] = tested on: Ehrlich ascites cells; experiment: survival of mice transplanted with Ehrlich ascites cells, i.p. dosing for 7 consecutive days (potentiation of mitomycin C); type: in vivo, ddY mice; settings: for Survival Rate (%): i.p. 7 days, compound 1 50 mg/kg/day, mitomycin C 0.5 mg/kg/day
Description: (§1) Thus, ddY mice (male, body weights ca 18 g) were reared for a week and 1×10^6 Ehrlich ascites cells/animal were intraperitoneally transplanted. After 24 hours, mitomycin C or/and compound 1 were administered intraperitoneally for 7 consecutive days.

[3] = tested on: Ehrlich ascites cells; settings: single i.p. at day 6, mitomycin C 1 mg/kg, compound 1 50 mg/kg
Description: as §1

`COC(=O)c1ncc(O)c2c1[nH]c1ccccc12` [OH H COOCH3, 1-Carbomethoxy-4-Hydroxy-9H-Pyrido[3,4-b]Indole] showed an IC50 [1] of 78400 nM.

`OCc1ncc(O)c2c1[nH]c1ccccc12` [OH H CH2 OH, 1-Hydroxymethyl-4-Hydroxy-9H-pyrido[3,4-b]Indole] showed an IC50 [1] of 336 nM.

`O=Cc1nccc2c1[nH]c1ccccc12` [H H CHO] showed an IC50 [1] of 4080 nM.

`O=C(O)c1ncc(O)c2c1[nH]c1ccccc12` [OH H COOH, 1-Carboxy-4-Hydroxy-9H-Pyrido[3,4-b]Indole] showed an IC50 [1] of 1100 nM.

`O=Cc1nc(O)cc2c1[nH]c1ccccc12` [H OH CHO, 1-Formyl-3-Hydroxy-9H-Pyrido[3,4-b]Indole] was tested, and the IC50 [1] was 1790 nM.

For `CC(=O)Oc1cnc(C=O)c2[nH]c3ccccc3c12` [OCOCH3 H CHO, 1-Formyl-4-Acetoxy-9H-Pyrido[3,4-b]Indole], the IC50 [1] was 6.69 nM.

For `OCc1nccc2c1[nH]c1ccccc12` [H H CH2 OH, 1-Hydroxymethyl-9H-Pyrido[3,4-b]Indole], the IC50 [1] was 21700 nM.

With `O=Cc1ncc(O)c2c1[nH]c1ccccc12` [Compound 1, 1-formyl-4-hydroxy-9H-pyrido[3,4-b]indole] the IC50 [1] was 3.06 nM, the “Survival Rate (%)” value ([2]; Day 16) was 100% and the “Survival Rate (%)” value ([2]; Day 17) was 90%. The “Survival Rate (%)” value ([2]; Day 18) was 80%, the “Survival Rate (%)” value ([2]; Day 19) was 80% and the “Survival Rate (%)” value ([2]; Day 20) was 70%. The “Survival Rate (%)” value ([2]; Day 21) was 70%, the “Survival Rate (%)” value ([2]; Day 22) was 40% and the “Survival Rate (%)” value ([2]; Day 23) was 30%. The “Survival Rate (%)” value ([2]; Day 24) was 10%, the “Survival Rate (%)” value ([2]; Day 25) was 10% and the “Survival Rate (%)” value ([2]; Day 26) was 10%. The “potentiation of the antitumor activity of mitomycin C and similar antibiotics” value ([2]; result in words, conventional laboratory models) was “significant potentiation of the antitumor activity of mitomycin C”.

Work on `COC(=O)c1nccc2c1[nH]c1ccccc12` [H H COOCH3, 1-carbomethoxy-9H-pyrido[3,4-b]indole] yielded an IC50 [1] of 177000 nM.

`CO[C@@]12[C@H](COC(N)=O)C3=C(C(=O)C(C)=C(N)C3=O)N1C[C@@H]1N[C@@H]12` [Mitomycin, mitomycin C] was tested, and the “Survival Rate (%)” value ([2]; Day 16) was 100%, the “Survival Rate (%)” value ([2]; Day 17) was 100% and the “Survival Rate (%)” value ([2]; Day 18) was 100%. For the same molecule, the “Survival Rate (%)” value ([2]; Day 19) was 100%, the “Survival Rate (%)” value ([2]; Day 20) was 100% and the “Survival Rate (%)” value ([2]; Day 21) was 100%. The “Survival Rate (%)” value ([2]; Day 22) was 90%, the “Survival Rate (%)” value ([2]; Day 23) was 90% and the “Survival Rate (%)” value ([2]; Day 24) was 90%. For the same molecule, the “Survival Rate (%)” value ([2]; Day 25) was 90%, the “Survival Rate (%)” value ([2]; Day 26) was 90% and the “Survival Rate (%)” value ([2]; Day 27) was 90%. The “Survival Rate (%)” value ([2]; Day 28) was 80%, the “Survival Rate (%)” value ([2]; Day 29) was 70% and the “Survival Rate (%)” value ([2]; Day 30) was 70%. For the same molecule, the “Survival Rate (%)” value ([2]; Day 33) was 70%, the “Survival Rate (%)” value ([2]; Day 34) was 60% and the “Survival Rate (%)” value ([2]; Day 38) was 60%. For the same molecule, the “Survival Rate (%)” value ([2]; Day 39) was 50%, the “Survival Rate (%)” value ([2]; Day 48) was 50% and the “Survival Rate (%)” value ([2]; Day 49) was 40%. The “Survival Rate (%)” value ([2]; Day 52) was 40%, the “Survival Rate (%)” value ([2]; Day 53) was 30% and the “Survival Rate (%)” value ([2]; Day 56) was 30%. For the same molecule, the “Survival Rate (%)” value ([2]; Day 57) was 20%, the “Survival Rate (%)” value ([2]; Day 58) was 20% and the “Survival Rate (%)” value ([2]; Day 59) was 20%. The “Survival Rate (%)” value ([2]; Day 60 after transplantation) was 20%, the “No. Surviving” value ([3]; Day 10) was 7 and the “No. Surviving” value ([3]; Day 11) was 7. For the same molecule, the “No. Surviving” value ([3]; Day 12) was 7, the “No. Surviving” value ([3]; Day 13) was 7 and the “No. Surviving” value ([3]; Day 14) was 7. For the same molecule, the “No. Surviving” value ([3]; Day 15) was 7, the “No. Surviving” value ([3]; Day 16) was 7 and the “No. Surviving” value ([3]; Day 17) was 7. The “No. Surviving” value ([3]; Day 18) was 5, the “No. Surviving” value ([3]; Day 19) was 5 and the “No. Surviving” value ([3]; Day 20) was 4. For the same molecule, the “No. Surviving” value ([3]; Day 21) was 4, the “No. Surviving” value ([3]; Day 22) was 4 and the “No. Surviving” value ([3]; Day 23) was 2. For the same molecule, the “No. Surviving” value ([3]; Day 24) was 2, the “No. Surviving” value ([3]; Day 25) was 1 and the “No. Surviving” value ([3]; Day 26) was 1. The “No. Surviving” value ([3]; Day 27) was 1 and the “No. Surviving” value ([3]; Day 28) was 1.
